This assay addresses DNA repair protein RAD51 homolog 1 (Homo sapiens) (UniProt Q06609). Nature of the assay: inhibitors of RAD51 DNA binding, dose response, biochemical, fluorescence (AID 1436).

Inconclusive results are not listed. Active and inactive are the calls of the source. The rule behind the calls is not given here.

Sequence of DNA repair protein RAD51 homolog 1 (Homo sapiens) (Q06609 whole entry, looked up): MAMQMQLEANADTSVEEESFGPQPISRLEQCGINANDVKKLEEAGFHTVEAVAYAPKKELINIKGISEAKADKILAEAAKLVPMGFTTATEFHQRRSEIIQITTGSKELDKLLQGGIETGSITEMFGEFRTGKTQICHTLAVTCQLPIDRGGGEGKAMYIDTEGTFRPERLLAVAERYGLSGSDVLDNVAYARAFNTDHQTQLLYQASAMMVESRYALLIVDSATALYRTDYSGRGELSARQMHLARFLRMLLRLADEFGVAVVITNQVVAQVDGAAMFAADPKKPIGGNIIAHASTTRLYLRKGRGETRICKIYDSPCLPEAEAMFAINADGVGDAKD

In the case of `COc1cccc2c1C(=O)c1c(O)c3c(c(O)c1C2=O)C[C@@](O)(C(=O)CO)C[C@@H]3O[C@H]1C[C@H](N)[C@@H](O)[C@H](C)O1`, the IC50 (as a rule, the concentration needed to halve the response being measured) is > 85 µM (inactive).
With `COC(=O)c1ccc(=O)c2nc3/c(=C/O)c(O)cc(=O)c3[nH]c12` the figure was > 42.5 µM (inactive).

(Values after PubChem BioAssay AID1436 (PCMD, 2008).)
